The inhibition is the change of the read-out against control, counted positive when it falls. Usually IC50 stands for the concentration needed to halve the response being measured.

The source made the active and inactive calls. How the calls were made is not given here.

Results on 4 molecules are retold here after PubChem BioAssay AID463179 (Southern Research Specialized Biocontainment Screening …, 2010).

Test [1] in a line: Inhibitors of PhoP regulon, Salmonella typhi GFP reporter, confirmatory dose response (AID 463179). To be noted: Salmonella Typhi PhoP-promoter GFP reporter, fluorescence, 4 h; at 150 µM (top of the series).
For test [2], the system named is Salmonella Typhi PhoP-promoter GFP reporter, fluorescence, 4 h. The test is described as above.

With `O=C1C2=C(Nc3ccccc3SC2c2ccc(Cl)cc2)c2ccccc21` (centres undefined), the inhibition in test [1] is 18% (inactive).

In the case of `O=C1C2=C(Nc3ccccc3SC2c2cccc(Br)c2)c2ccccc21` (centres undefined), the inhibition in test [1] is -12.2% (inactive).

`Cc1ccc(C2Sc3ccccc3N=C3c4ccccc4CC32)cc1` (centres undefined): the IC50 in test [2] is 2.67 µM.

As to `Clc1ccc(C2Sc3ccccc3N=C3c4ccccc4CC32)cc1` (centres undefined), the IC50 in test [2] is 6.26 µM.
